How the values were obtained:
Puccinia recondita = test: In vivo preventive test on Puccinia recondita (brown rust on wheat); conditions: wheat plants, 12 days after contamination
Protocol: In Vivo Preventive Test on Puccinia recondita (Brown Rust on Wheat) […] Wheat plants (“Scipion” variety), sown in starter cups on a 50/50 peat soil pozzolana substrate and grown at 22° C., are treated at the 1 leaf stage (10 cm height) by spraying with the active ingredient prepared as described above. Plants, used as controls, are treated with the mixture of acetone/tween/DMSO/water not containing the active material. After 24 hours, the plants are contaminated by spraying the leaves with an aqueous suspension of Puccinia recondita spores (100 000 spores per mL). The spores are collected from an infected plant and are suspended in water containing 2.5 mL/L of Tween 80 at 10%. […] Grading (% of efficacy) is carried out 12 days after the contamination, in comparison with the control plants.

[1] = log P by HPLC on a reversed-phase column (C 18), EEC Directive 79/831 Annex V.A8; format: physicochemical; conditions: 0.1% aqueous formic acid and acetonitrile; for chromatographic logP: reversed-phase HPLC column (C 18), read-out: logP
Protocol: In table 1, the log P values were determined in accordance with EEC Directive 79/831 Annex V.A8 by HPLC (High Performance Liquid Chromatography) on a reversed-phase column (C 18), using the method described below: Temperature: 40° C.; Mobile phases: 0.1% aqueous formic acid and acetonitrile; linear gradient from 10% acetonitrile to 90% acetonitrile. Calibration was carried out using unbranched alkan-2-ones (comprising 3 to 16 carbon atoms) with known log P values (determination of the log P values by the retention times using linear interpolation between two successive alkanones). lambda-max-values were determined using UV-spectra from 200 nm to 400 nm and the peak values of the chromatographic signals.

Uromyces appendiculatus = test: In vivo preventive test on Uromyces appendiculatus (bean rust); conditions: bean plants, 11 days after contamination
Protocol: In Vivo Preventive Test on Uromyces appendiculatus (Bean Rust) […] Bean plants (“Saxa” variety), sown in starter cups on a 50/50 peat soil pozzolana substrate and grown at 24° C., are treated at the 2 leaf stage (9 cm height) by spraying with the active ingredient prepared as described above. Plants, used as controls, are treated with the mixture of acetone/tween/DMSO/water not containing the active material. After 24 hours, the plants are contaminated by spraying the leaves with an aqueous suspension of Uromyces appendiculatus spores (150 000 spores per mL). The spores are collected from infected plants and are suspended in water containing 2.5 mL/L of Tween 80 at 10%. […] Grading (% of efficacy) is carried out 11 days after the contamination, in comparison with the control plants.

Septoria tritici = test: In vivo preventive test on Septoria tritici (wheat); conditions: wheat plants, 24 days after contamination
Protocol: In Vivo Preventive Test on Septoria tritici (Wheat) […] Wheat plants (“Scipion” variety), sown in starter cups on a 50/50 peat soil pozzolana substrate and grown at 22° C., are treated at the 1 leaf stage (10 cm height) by spraying with the active ingredient prepared as described above. Plants, used as controls, are treated with the mixture of acetone/tween/DMSO/water not containing the active material. After 24 hours, the plants are contaminated by spraying the leaves with an aqueous suspension of cryopreserved Septoria tritici spores (500 000 spores per mL). The contaminated wheat plants are incubated for 72 hours at 18° C. and at 100% relative humidity, and then for 21 days at 90% relative humidity. Grading (% of efficacy) is carried out 24 days after the contamination, in comparison with the control plants.

Sphaerotheca fuliginea = test: In vivo preventive test on Sphaerotheca fuliginea (powdery mildew on cucurbits); conditions: gherkin plants, 12 days after contamination
Protocol: In Vivo Preventive Test on Sphaerotheca fuliginea (Powdery Mildew on Cucurbits) […] Gherkin plants (“Vert petit de Paris” variety), sown in starter cups on a 50/50 peat soil-pozzolana substrate and grown at 24° C., are treated at the Z11 cotyledon stage by spraying with the active ingredient prepared as described above. Plants, used as controls, are treated with the mixture of acetone/tween/DMSO/water not containing the active material. After 24 hours, the plants are contaminated by spraying the cotyledons with an aqueous suspension of Sphaerotheca fuliginea spores (100 000 spores per mL). The spores are collected from infected plants. […] Grading (% of efficacy) is carried out 12 days after the contamination, in comparison with the control plants.

[2] = HPLC on reversed-phase column (C 18), 40° C., linear gradient 10% to 90% acetonitrile
[3] = Podosphaera fuliginea, 288 h, 500 ppm of active ingredient, read-out: Efficacy

`Cn1nc(C(F)F)c(C(=O)N(Cc2cc(F)ccc2C2(C)CO2)C2CC2)c1Cl` (centres unmarked) [I.8] gave an Efficacy (Puccinia recondita; 100 ppm of active ingredient) of 94%, a logP [1, 2] of 3.00 and an Efficacy (Uromyces appendiculatus; 100 ppm of active ingredient) of 95%.
`Cc1nn(C)c(C)c1-c1ccc(F)cc1CN(C(=O)c1c(C(F)F)nn(C)c1F)C1CC1` [I.112] showed an Efficacy (Septoria tritici; 500 ppm of active ingredient) of 100%, an Efficacy (Puccinia recondita; 500 ppm of active ingredient) of 83% and a logP [1, 2] of 2.66. The Efficacy (Sphaerotheca fuliginea; 500 ppm of active ingredient) was 100%.
Compound `Cc1ccc(-c2ccoc2)c(CN(C(=O)c2c(C(F)F)nn(C)c2Cl)C2CC2)c1` [I.37] has an Efficacy (Puccinia recondita; 100 ppm of active ingredient) of 81%, a logP [1, 2] of 3.71 and an Efficacy (Uromyces appendiculatus; 100 ppm of active ingredient) of 83%.
With `CC1CC1N(Cc1ccccc1-c1ccsc1)C(=O)c1c(C(F)F)nn(C)c1Cl` (centres unmarked) [I.88] the Efficacy (Septoria tritici; 500 ppm of active ingredient) was 79%, the Efficacy (Puccinia recondita; 500 ppm of active ingredient) was 94% and the logP [1, 2] was 3.92.
Compound `Cn1nc(C(F)F)c(C(=O)N(Cc2ccccc2-c2cccc(Cl)n2)C2CC2)c1F` [CMP3, N-[2-(6-chloropyridin-2-yl)benzyl]-N-cyclopropyl-3-(difluoromethyl)-5-fluoro-1-methyl-1H-pyrazole-4-carboxamide, reference compound] has a pest or weed control at 500 ppm (Sphaerotheca fuliginea; [3]) of under 40%.
Work on `Cc1ccc(-c2ccoc2)c(CN(C(=O)c2c(C(F)F)nn(C)c2F)C2CC2)c1` [I.39] yielded an Efficacy (Septoria tritici; 100 ppm of active ingredient) of 80%, an Efficacy (Puccinia recondita; 100 ppm of active ingredient) of 88% and a logP [1, 2] of 3.55.
`Cn1nc(C(F)F)c(C(=O)N(Cc2ccccc2C2COC2)C2CC2)c1F` [I.1] gave an Efficacy (Puccinia recondita; 500 ppm of active ingredient) of 75%, a logP [1, 2] of 1.51 and an Efficacy (Sphaerotheca fuliginea; 500 ppm of active ingredient) of 93%. It also gave an Efficacy (Uromyces appendiculatus; 500 ppm of active ingredient) of 83%.
Work on `Cn1cc(C(=O)N(Cc2ccc(-c3cccnc3)cc2Cl)C2CC2)c(C(F)F)n1` [CMP1, N-[2-chloro-4-(pyridin-3-yl)benzyl]-N-cyclopropyl-3-(difluoromethyl)-1-methyl-1H-pyrazole-4-carboxamide, reference compound] yielded a pest or weed control at 100 ppm (Sphaerotheca fuliginea; Podosphaera fuliginea, 288 h, 100 ppm of active ingredient, read-out: Efficacy) of 0%.
In the case of `Cn1nc(C(F)F)c(C(=O)N(Cc2cc(Cl)ccc2-c2csc3ccccc23)C2CC2)c1F` [I.155], the Efficacy (Septoria tritici; 500 ppm of active ingredient) is reported as 86%, the Efficacy (Puccinia recondita; 500 ppm of active ingredient) is reported as 75% and the logP [1, 2] is reported as 4.74. It also gave an Efficacy (Uromyces appendiculatus; 500 ppm of active ingredient) of 99%.
`CC1OCC1c1ccccc1CN(C(=O)c1c(C(F)F)nn(C)c1Cl)C1CC1` (centres unmarked) [I.16] showed an Efficacy (Septoria tritici; 500 ppm of active ingredient) of 90% and a logP [1, 2] of 2.08.
Work on `CC1=NOC(C)(c2ccc(C)cc2CN(C(=O)c2c(C(F)F)nn(C)c2F)C2CC2)C1` (centres unmarked) [I.111] yielded an Efficacy (Puccinia recondita; 100 ppm of active ingredient) of 88%, a logP [1, 2] of 2.98 and an Efficacy (Sphaerotheca fuliginea; 100 ppm of active ingredient) of 100%. For the same compound, the Efficacy (Uromyces appendiculatus; 100 ppm of active ingredient) was 100%.
`Cn1nc(C(F)F)c(C(=O)N(Cc2ccccc2-c2cccc(Cl)n2)C2CC2)c1Cl` [CMP5, 5-chloro-N-[2-(6-chloropyridin-2-yl)benzyl]-N-cyclopropyl-3-(difluoromethyl)-1-methyl-1H-pyrazole-4-carboxamide, reference compound] gave a pest or weed control at 500 ppm (Sphaerotheca fuliginea; [3]) of under 40%.
For `CC1CC1N(Cc1ccccc1-c1ccsc1)C(=O)c1cn(C)nc1C(F)F` (centres unmarked) [I.87], the Efficacy (Puccinia recondita; 500 ppm of active ingredient) was 75%, the logP [1, 2] was 3.48 and the Efficacy (Uromyces appendiculatus; 500 ppm of active ingredient) was 84%.
`Cn1cc(C(=O)N(Cc2ccccc2-c2cccc(Cl)n2)C2CC2)c(C(F)F)n1` [CMP4, N-[2-(6-chloropyridin-2-yl)benzyl]-N-cyclopropyl-3-(difluoromethyl)-1-methyl-1H-pyrazole-4-carboxamide, reference compound] showed a pest or weed control at 500 ppm (Sphaerotheca fuliginea; [3]) of under 40%.
`Cc1nn(C)c(C)c1-c1ccc(Cl)cc1CN(C(=O)c1c(C(F)F)nn(C)c1F)C1CC1` [I.113] gave an Efficacy (Septoria tritici; 500 ppm of active ingredient) of 70%, a logP [1, 2] of 2.98 and an Efficacy (Sphaerotheca fuliginea; 500 ppm of active ingredient) of 98%.
In the case of `Cc1ccc(-c2cnn(C)c2)c(CN(C(=O)c2c(C(F)F)nn(C)c2F)C2CC2)c1` [I.58], the Efficacy (Septoria tritici; 100 ppm of active ingredient) is reported as 97% and the logP [1, 2] is reported as 2.63.
For `Cn1cc(C(=O)N(Cc2cc(F)ccc2C2(C)CO2)C2CC2)c(C(F)F)n1` (centres unmarked) [I.6], the Efficacy (Septoria tritici; 100 ppm of active ingredient) was 92%, the Efficacy (Puccinia recondita; 100 ppm of active ingredient) was 81% and the logP [1, 2] was 2.53. For the same compound, the Efficacy (Uromyces appendiculatus; 100 ppm of active ingredient) was 73%.
For `Cc1ccc(-c2csc3ccccc23)c(CN(C(=O)c2c(C(F)F)nn(C)c2F)C2CC2)c1` [I.160], the Efficacy (Septoria tritici; 100 ppm of active ingredient) was 71%, the logP [1, 2] was 4.64 and the Efficacy (Sphaerotheca fuliginea; 100 ppm of active ingredient) was 98%. For the same compound, the Efficacy (Uromyces appendiculatus; 100 ppm of active ingredient) was 77%.
Work on `Cn1cc(C(=O)N(Cc2cc(Cl)ccc2-c2cccs2)C2CC2)c(C(F)F)n1` [I.71] yielded an Efficacy (Septoria tritici; 500 ppm of active ingredient) of 90%, a logP [1, 2] of 3.69 and an Efficacy (Sphaerotheca fuliginea; 500 ppm of active ingredient) of 98%. It also gave an Efficacy (Uromyces appendiculatus; 500 ppm of active ingredient) of 81%.
`Cn1nc(C(F)F)c(C(=O)N(Cc2cc(Cl)ccc2-c2cccs2)C2CC2)c1Cl` [I.77] showed a logP [1, 2] of 4.29 and an Efficacy (Uromyces appendiculatus; 500 ppm of active ingredient) of 84%.
For `Cn1ccc(-c2ccc(Cl)cc2CN(C(=O)c2c(C(F)F)nn(C)c2F)C2CC2)c1` [I.48], the Efficacy (Septoria tritici; 500 ppm of active ingredient) was 86%, the Efficacy (Puccinia recondita; 500 ppm of active ingredient) was 75% and the logP [1, 2] was 3.71. The Efficacy (Uromyces appendiculatus; 500 ppm of active ingredient) was 96%.
`Cn1nc(C(F)F)c(C(=O)N(Cc2ccccc2-c2ccsc2)C2CC2)c1Cl` [I.76] showed an Efficacy (Septoria tritici; 500 ppm of active ingredient) of 75%, an Efficacy (Puccinia recondita; 500 ppm of active ingredient) of 93% and a logP [1, 2] of 3.71. It also gave an Efficacy (Uromyces appendiculatus; 500 ppm of active ingredient) of 96%.
For `O=C(c1ccsc1I)N(Cc1ccccc1-c1ccco1)C1CC1` [I.33], the logP [1, 2] was 4.01.
With `CC(C)c1ccc(Cl)cc1C=NO` [1-(5-chloro-2-isopropylphenyl)-N-hydroxymethanimine] the logP ([1]; HPLC, C 18, 40° C.) was 3.17 and the chromatographic logP ([1]; HPLC, C 18, 40° C.) was 2.9.
In the case of `Cn1cc(C(=O)N(Cc2ccccc2-c2ccco2)C2CC2)c(C(F)F)c1` [I.42], the logP [1, 2] is reported as 3.44.
`Cn1nc(C(F)F)c(C(=S)N(Cc2ccccc2-c2ccc(Cl)s2)C2CC2)c1Cl` [I.142] gave a logP [1, 2] of 5.19.
`Cc1ccc(-c2cnn(C)c2)c(CN(C(=O)c2cn(C)nc2C(F)F)[C@@H]2C[C@H]2C)c1` (relative stereo) [I.62] showed a logP [1, 2] of 2.66.
With `Cc1ccc(-c2ccoc2)c(CN(C(=O)c2cn(C)nc2C(F)F)C2CC2)c1` [I.38] the logP [1, 2] was 3.19.
`Clc1ccc(-c2cccs2)c(CNC2CC2)c1` [IIa.2, N-[5-chloro-2-(2-thienyl)benzyl]cyclopropanamine] showed a chromatographic logP ([1]; HPLC, C 18, 40° C.) of 1.1.
`Cn1nc(C(F)F)c(C(=S)N(Cc2cc(Cl)ccc2-c2cccs2)C2CC2)c1Cl` [I.79] gave an Efficacy (Septoria tritici; 500 ppm of active ingredient) of 75%, a logP [1, 2] of 4.92 and an Efficacy (Uromyces appendiculatus; 500 ppm of active ingredient) of 100%.
`Clc1ccc(-c2ccc(Cl)c(CNC3CC3)c2)s1` [IIb.4, N-[2-chloro-5-(5-chloro-2-thienyl)benzyl]cyclopropanamine] gave a chromatographic logP ([1]; HPLC, C 18, 40° C.) of 1.58.
In the case of `Cn1cc(C(=O)N(Cc2cc(-c3cccs3)ccc2Cl)C2CC2)c(C(F)F)c1` [I.90], the logP [1, 2] is reported as 4.16.
In the case of `Cc1ccc(-c2ccsc2Cl)c(CN(C(=O)c2cn(C)nc2C(F)F)C2CC2)c1` [I.149], the logP [1, 2] is reported as 3.85.
With `Cc1cc(C(=O)N(Cc2cc(-c3ccc(Cl)s3)ccc2Cl)C2CC2)c(C)o1` [I.152] the logP [1, 2] was 5.54.
For `Cc1ccc(-c2coc3ccccc23)c(CN(C(=O)c2c(C(F)F)nn(C)c2Cl)C2CC2)c1` [I.133], the logP [1, 2] was 4.49.
Work on `Cc1ccc(CN(C(=O)c2c(C(F)F)nn(C)c2F)C2CC2)c(C2(C)OCCO2)c1` [I.21] yielded a logP [1, 2] of 3.25.
`Cn1nc(C(F)F)c(C(=O)N(Cc2c(C3(C)CO3)ccc(Cl)c2F)C2CC2)c1F` (centres unmarked) [I.13] showed a logP [1, 2] of 3.29.
`c1ccc(-c2ccsc2)c(CNC2CC2)c1` [IIa.3, N-[2-(3-thienyl)benzyl]cyclopropanamine] showed a chromatographic logP ([1]; HPLC, C 18, 40° C.) of 1.34.

From US10125126B2, “N-cycloalkyl-N-[(heterocyclylphenyl)methylene]-(thio)carboxamide derivatives” (BAYER CROPSCIENCE AG, priority 2012, dated 2018)
